The structures appear in SMILES notation.

This data set is described as follows: gradient 5% acetonitrile 3 min, to 50% in 2 min, to 85% in 15 min, held 3 min, 100 µL/min. The settings on record: column: Zorbax Extend-C18 2.1 x 50 mm; eluents: water / acetonitrile, 0.1% formic acid. An outline of the steps: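 Mixtures of ~100 pure standards were chromatographed on a Zorbax Extend-C18 column (2.1 × 50 mm, 1.8 μm) at 100 μL/min using water and acetonitrile, each with 0.1% formic acid. Detection used a quadrupole time-of-flight mass spectrometer in positive and negative ionization mode, and data collection spanned 3 months. Retention time was obtained from adduct peaks picked computationally and each checked manually.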
Consider `O=C(CSc1nnc2sc3ccccc3n12)c1ccc(F)cc1`, for which the RP-LC retention time stood at 778 s.

The compound `Cc1ccc(-n2c(=O)n(C)c(=O)c3cc(C(=O)Nc4ccc5c(c4)OCO5)cnc32)cc1` came in with an RP-LC retention time of 907 s. `CCNC(=O)C1c2ccccc2C(=O)N(CC(C)C)C1c1cccs1` (stereo not given) gave an RP-LC retention time of 818 s. The same measure for `COc1cc(NC(C)=O)c2ncccc2c1NC(C)=O`: 631 s. For the compound `O=C(Cn1nc2c(cc1=O)CCCCC2)Nc1nc(-c2cccnc2)cs1`, the RP-LC retention time was determined as 646 s. For `COc1cc2c(cc1OC)CN(C(=O)c1cc(-c3cccs3)[nH]n1)CC2`, the RP-LC retention time came to 703 s. For `Cc1cc(NC(=O)Nc2ccc3nnc(C4CCC4)n3c2)ccc1Br`, the RP-LC retention time worked out at 903 s.

Turning to `CC(C)(C)c1cc(C(=O)Nc2cc(F)cc(F)c2)nc2ccnn12`, the RP-LC retention time was 1360 s. `COc1ccc2c(C)c(CCC(=O)N[C@H](C(=O)O)c3ccccc3)c(=O)oc2c1` displayed an RP-LC retention time of 744 s. For `O=C(Cn1nc2c(cc1=O)CCCC2)Nc1nc(-c2ccc3c(c2)OCO3)cs1` the value was 851 s; for `Cc1cc(C(=O)NC(C)C)c2cccc(Cl)c2n1`, 718 s; for `Cc1ccccc1C(=O)NC1CCN(c2cc(-c3cccs3)[nH]n2)C1` (stereo not given), 705 s. For `CC(C)NC(=O)c1cc(-c2ccncc2)n[nH]1` the value was 553 s.

`CN(CCCNC(=O)C1CCc2nc(N3CCCCC3)ncc2C1)c1ccccc1` (stereo not given): the RP-LC retention time was found to be 793 s. The same measure for `CC(C)Cn1cc(S(=O)(=O)NCc2cccc(C(F)(F)F)c2)c2cccnc21`: 1070 s. Consider `Cc1nc(OCC(=O)Nc2ccc(Cl)c(Cl)c2)c2ccccc2n1`, for which the RP-LC retention time was 859 s. For `Cc1ccc(-c2nc3cnccn3c2Nc2ccc(C)cc2C)cc1` the value was 1070 s; for `CCc1ccc(-n2c(CN3CCN(C(=O)NCC4CCCO4)CC3)nc3cccnc32)cc1` (stereo not given), 636 s; for `COc1ccccc1CNC1=NCCNC12CCN(S(=O)(=O)c1cc(C)ccc1C)CC2`, 775 s.

On to `Cc1ccc(-c2nc3ccccn3c2Nc2ccc(F)cc2)cc1`, for which the RP-LC retention time was found to be 717 s. As to `CC(C)N1CCn2cc(S(=O)(=O)NCc3ccc(F)cc3F)cc2C1=O`, the RP-LC retention time was determined as 763 s. The same measure for `O=C(NCc1ccccc1Cl)c1ccc2c(c1)CCN2C(=O)C1CC1`: 856 s.

In turn, `CC(=O)c1cccc(NC(=O)Cn2ccc3ccc(-c4nnc(C)o4)cc32)c1` yielded an RP-LC retention time of 762 s. The same measure for `COC(=O)c1cc2ccsc2n1Cc1cccc(C#N)c1`: 1010 s. For `NC(=O)c1cc(N2CCCC2)nc2c(Cl)cccc12`, the RP-LC retention time amounted to 607 s.

`Cc1nc(N2CCN(Cc3ccc4c(c3)OCO4)CC2)nc2c1C(=O)CC(c1cccs1)C2` (stereo not given) yielded an RP-LC retention time of 753 s.

For the compound `Cc1ccc(CNC(=O)N2CCN(Cc3nc4cc(-c5ccccc5)ccc4o3)CC2)cc1`, the RP-LC retention time stood at 854 s. As to `Cn1nccc1C(=O)N1CCCC1c1cccc(F)c1` (stereo not given), the RP-LC retention time was 758 s. In turn, `CN(c1ccccc1CNc1nc(Nc2ccc3c(c2)CC(=O)N3)ncc1C(F)(F)F)S(C)(=O)=O` displayed an RP-LC retention time of 713 s. Take `CCC(=O)N(C)CCc1noc(-c2ccc(C(=O)NC3CCCCCC3)cc2)n1`: the RP-LC retention time was found to be 794 s. `NC(=O)c1cccn1Cc1ccccc1Cl` registered an RP-LC retention time of 804 s. `CN1C(=O)c2ccccc2Sc2ccc(NC(=O)N3CCC(C(N)=O)CC3)cc21` gave an RP-LC retention time of 1430 s. In turn, `CCS(=O)(=O)N1CC(=O)N(c2cc(C)ccc2C)C(C)(C(=O)NC2CCCC2)C1` (stereo not given) displayed an RP-LC retention time of 834 s. As to `CC(=O)Nc1nc(-c2ccc(C)cc2C)cs1`, the RP-LC retention time came out at 808 s. The same measure for `COc1ccc(NC(=O)c2csc3c2CCCC3)cc1`: 894 s; for `CC1Oc2ccc(-c3csc(NC(=O)COc4ccc(Cl)cc4)n3)cc2NC1=O` (stereo not given): 966 s; for `COCCn1nc2n(c1=O)CCN(C(=O)C1(c3ccccc3)CCCC1)CC2`: 730 s. Compound `Cn1c(C(=O)Nc2ccc(F)cc2Cl)cc2c(=O)oc3ccccc3c21` came in with an RP-LC retention time of 988 s. `CCC(CO)NCc1ccc(-c2ccc(Br)cc2)o1` (stereo not given) had an RP-LC retention time of 683 s. In the case of `CCOc1ccc(NC(=O)Cn2c(N3CCOCC3)nc3cc(C)n(C)c3c2=O)cc1`, the RP-LC retention time was 652 s. The same measure for `O=C(NCCn1nnc2cc(C(=O)N3CCCC3)ccc21)Nc1ccccc1`: 616 s. With `COc1ccc(NS(=O)(=O)c2cc(-c3nnc(C(=O)N4CCCC4)o3)sc2C)c(OC)c1`, the RP-LC retention time worked out at 846 s.

`C=CCNCc1ccc(-c2cccc(C(F)(F)F)c2)o1` registered an RP-LC retention time of 714 s. With `O=C1C(N2CCN(S(=O)(=O)c3ccccc3)CC2)CCN1CCc1ccccc1` (stereo not given), the RP-LC retention time turned out to be 642 s. `CC1CCN(C(=O)Cn2nc(-c3nc(-c4cccc(Cl)c4)no3)ccc2=O)CC1` returned an RP-LC retention time of 1040 s. Turning to `Cc1cc(OCC(=O)Nc2ccc3c(c2)OCO3)nc(N2CCN(c3ccccc3)CC2)n1`, the RP-LC retention time turned out to be 776 s. `CCOC(=O)C1CCN(C(=O)c2ccc3ccnc(N4CCN(c5ccc(F)cc5)CC4)c3c2)CC1` returned an RP-LC retention time of 814 s. Turning to `Clc1ccccc1C1Cn2cnc(-c3nc(-c4ccncc4)no3)c2CO1` (stereo not given), the RP-LC retention time came out at 915 s. On to `CC1Oc2ccc(S(=O)(=O)N3CCC(C(=O)NC4CCCC4)CC3)cc2NC1=O` (stereo not given), for which the RP-LC retention time is 740 s. Compound `CSc1nc2cc(Oc3cccc(Cl)c3Cl)c(Cl)cc2[nH]1` gave an RP-LC retention time of 1080 s. The same measure for `CCOc1ccc(-n2ccn3cc(-c4ccc(F)cc4)nc3c2=O)cc1`: 860 s. In turn, `O=c1c2cnc3nc(-c4ccccc4Cl)nn3c2ccn1CCc1c[nH]c2ccccc12` gave an RP-LC retention time of 950 s.

As for `COc1ccccc1CCC(=O)N1CCc2cc(-c3csc(C)n3)ccc21`, the RP-LC retention time amounted to 1090 s. `O=C(NC1CCN(c2cc(-c3cccs3)[nH]n2)C1)c1ccncc1` (stereo not given): the RP-LC retention time stood at 612 s.

Take `CCc1ccc(-c2csc(NC(=O)Cc3csc(-c4ccccc4)n3)n2)cc1`: the RP-LC retention time was 1240 s. Turning to `CCN(CC)C(=O)CN1C(=O)C2(NC(C)C3C(=O)N(Cc4ccccc4)C(=O)C32)c2ccccc21` (stereo not given), the RP-LC retention time amounted to 857 s. In the case of `CCCN(C)C(=O)C1CCCN(c2cnc3nccnc3c2)C1` (stereo not given), the RP-LC retention time came out at 655 s. In turn, `COc1cccc(Cn2cnc3c(-c4ccc(F)cc4)csc3c2=O)c1` gave an RP-LC retention time of 1050 s. `Cc1cc(S(=O)(=O)N(C)CC2CCOCC2)ccc1Cl` registered an RP-LC retention time of 963 s. Consider `Cc1ccc2ncn(C3CCN(C(=O)Nc4ccccc4)CC3)c(=O)c2c1`, for which the RP-LC retention time was determined as 751 s.
